# Assay results: patent US6211209A, “Method of inhibiting connective tissue degradation” (Warner-Lambert Company, priority 1998, dated 2001)
# System: 92 kDa gelatinase
# Experiment: Gelatin zymography of bovine nasal cartilage conditioned media: expression of 92 kDa gelatinase
# Type: cell-based
# Details: various concentrations, IL-1β-induced, FIG. 1
# Description: (§1) To evaluate the effects of the compounds of the present invention on the expression of 72 kDa and 92 kDa gelatinases, samples obtained from the bovine nasal cartilage study (described above) were subjected to gelatin zymography.
# (§2) Separating gels (8%) were made by combining 400 μL gelatin (25 mg/mL) with: 2.5 mL Tris (1.5 M); 100 μL SDS (10%); 2.6 mL acrylamide (30%); 10 μL TEMED; 4.6 mL dH2 O; 100 μL ammonium persulfate (10%). Stacking gels (4.5%) were formed by combining: 2.5 mL Tris (0.5 M); 100 μL SDS (10%); 1.5 mL acrylamide (30%); 10 μL TEMED; 5.8 mL dH2 O; 100 μL ammonium persulfate (10%).
# (§3) Bovine nasal cartilage conditioned media was diluted (1:15) using sample buffer 1X (2% SDS, 15% glycerol, 0.01% bromophenol blue, 0.25M Trizma Base, pH 6.8). Thirty microliters of each of the diluted samples and molecular weight standards were subjected to electrophoresis at 4° C. under constant current conditions (20 mA of current/gel) using Tris/Glycine running buffer (0.5 M Trizma Base, pH 8.8 using glycine, 1% SDS) that was diluted 1:20 before use.
# After completion of the electrophoretic procedure, the gel was first washed twice for 15 minutes in 2.5% Triton X-100. The gel was then rinsed with the gel incubation buffer (0.05 M Tris, pH 8.2, 0.005 M CaCl2, 0.5 μM ZnCl2) and incubated overnight in this buffer at 37° C. After the incubation period, the gel was stained for 30 minutes in 0.125% Coomassie and destained using 10% methanol/5% acetic acid destaining solution.
row,Structure (SMILES),inhibiting expression of IL-1β-induced 92 kDa gelatinase
1,"Cc1ccc(Cl)c(Nc2ccccc2C=C2SC(=S)NC2=O)c1Cl [Compound 11, 5-[2-(2,6-Dichloro-3-methyl-phenylamino)-benzylidene]-2-thioxo-thiazolidin-4-one]",effective in inhibiting expression of IL-1β-induced 92 kDa gelatinase in a dose-dependent manner

# Same assay, conditions: versus 72 kDa gelatinase
row,Structure (SMILES),specificity of effects (92 kDa versus 72 kDa gelatinase)
1,"Cc1ccc(Cl)c(Nc2ccccc2C=C2SC(=S)NC2=O)c1Cl [Compound 11, 5-[2-(2,6-Dichloro-3-methyl-phenylamino)-benzylidene]-2-thioxo-thiazolidin-4-one]",specific to 92 kDa

# System: 72 kDa gelatinase
# Experiment: Gelatin zymography of bovine nasal cartilage conditioned media: expression of 72 kDa gelatinase
# Type: cell-based
# Details: various concentrations, FIG. 1
# Description: as §1, §2, §3
# After completion of the electrophoretic procedure, the gel was first washed twice for 15 minutes in 2.5% Triton X-100. The gel was then rinsed with the gel incubation buffer (0.05 M Tris, pH 8.2, 0.005 M CaCl2, 0.5 μM ZnCl2) and incubated overnight in this buffer at 37° C. […]
row,Structure (SMILES),effect on expression of 72 kDa gelatinase
1,"Cc1ccc(Cl)c(Nc2ccccc2C=C2SC(=S)NC2=O)c1Cl [Compound 11, 5-[2-(2,6-Dichloro-3-methyl-phenylamino)-benzylidene]-2-thioxo-thiazolidin-4-one]",no effect on expression of 72 kDa gelatinase

# System: bovine nasal cartilage
# Experiment: Bovine nasal cartilage assay: inhibition of IL-1β-induced proteoglycan loss (chondroitin sulfate by 1,9 DMB)
# Type: cell-based
# Details: Bos taurus; concentration preventing 50% of proteoglycan loss; IL-1β-stimulated cartilage plugs
# Description: The BNC (bovine nasal cartilage) assay provides a model for evaluating chrondroprotective compounds that block cartilage degradation through inhibition of enzyme activity or by altering the gene expression of the matrix metalloproteinases such as stromelysin.
# The assay is accomplished in two phases. The cartilage plugs are first incubated with IL-1β in the presence of the compounds of the present method. The amount of proteoglycan released is then quantified by measuring chondroitin sulfate present in the media using the 1,9-Dimethylmethylene Blue Assay (1,9 DMB).
# Bovine nasal septum is dissected free of surrounding tissue and wiped with 70% alcohol. A sterile cork borer is used to remove 5-mm cartilage disks of 2- to 3-mm thickness. Explants are equilibrated for 96 hours in F-12 supplemented with 10% fetal calf serum (FCS) and antibiotics at 37° C. in a humidified atmosphere of 95% air and 5% CO2. Explants are then rinsed with 1 mL F-12 Nutrient Mixture (without phenol red) in order to remove traces of FCS. Each treatment group is done in triplicate allowing: controls (500 μL F-12 medium +110 μL PBS with 0.1% BSA +7 μL DMSO); IL-1β (500 μL F-12 medium without phenol red +100 μL IL-1β (500 U) +7 μL DMSO +10 μL PBS with 0.1% BSA); and dose responses (10, 1, and 0.1 μM) (F-12 medium without phenol red +100 μL IL-1β (500 U) +7 μL compound dissolved in DMSO +10 μL PBS with 0.1% BSA), to be tested per each 24-well plate. The cartilage plugs are incubated in the presence of conditioned media (IL-1β+compound) for 48 hours. Fresh unconditioned media (no IL-1β or compound) is added and incubated for an additional 24 hours. Both the conditioned and unconditioned media are collected and saved for analysis using the 1,9 DMB assay.
# The ability of a compound to inhibit proteoglycan released from the cartilage plugs is quantified by measuring chondroitin sulfate. This is done using the calorimetric 1,9 DMB assay. Depending on the amount of chondroitin sulfate present in the media a color change will occur turning the normally deep blue dye, vivid pink. This color change is measured using a Titertek Multiscan MCC 340 plate reader at 540 nm. A Cetus Pro/Pette is used to speed dilution and pipetting steps. The Cetus uses Sarstedt vials, designed for radioimmune assays, which have been inserted into Sarstedt 96-vial aluminum racks. The first row of 12 slots is left empty in order to accommodate the chondroitin sulfate standards (0.01-0.32 μg/mL shark chondroitin sulfate in 0.1 M phosphate buffer, pH 7.0, containing 0.01 M L-cysteine HCl and 0.05 M EDTA). It is necessary to dilute (1:5, 1:10) the medium before a […] is performed by adding 10 μL of collected media to 290 μL DMF (16 mg dye/1 L of 0.1 M formate buffer, pH 3.5, containing 5 mL ethanol) and reading at […]. Dilutions are performed on both the 48-hour and 72-hour media samples collected and saved earlier. Once the experiment has been completed, in order to determine the total amount of proteoglycan remaining in the plugs, they are subjected to papain digestion. Cartilage explants are digested in 20-mL glass scintillation vials by adding 50 μL papain in 1.0 mL cysteine buffer (0.01 M phosphate buffer, pH 7.0 containing 0.01 M L-cysteine HCl and 0.05 M EDTA). Digested material is diluted (1:60) and chondroitin sulfate values determined using the 1,9 DMB assay.
# Determination of chondroitin sulfate in each sample is accomplished by subtracting the constant value determined from the linear regression performed on the standard curve, from the O.D. value for a particular well, and then dividing by the X coefficient calculated from the linear regression done on the standard curve. Each experimental well is split into two samples for determining chondroitin sulfate values, then the two are averaged. […]
row,Structure (SMILES),IC50
1,"O=c1[nH]nc(-c2ccccc2Nc2ccccc2)o1 [Compound 2, 5-(2-Phenylamino-phenyl)-3H-[1,3,4]oxadiazol-2-one]",40.8 µM
2,"Cc1cccc(Nc2ccccc2-c2n[nH]c(=S)o2)c1C [Compound 3, 5-[2-(2,3-Dimethyl-phenylamino)-phenyl]-3H-[1,3,4]oxadiazole-2-thione]",31 µM
3,"Cc1ccc(Cl)c(Nc2ccccc2-c2n[nH]c(=S)o2)c1Cl [Compound 4, 5-[2-(2,6-Dichloro-3-methyl-phenylamino)-phenyl]-3H-[1,3,4]oxadiazole-2-thione]",26.8 µM
4,"Cc1ccc(Cl)c(Nc2ccccc2-c2n[nH]c(=S)[nH]2)c1Cl [Compound 5, 5-[2-(2,6-Dichloro-3-methyl-phenylamino)-phenyl]-2,4-dihydro-[1,2,4]triazole-3-thione]",9.9 µM
5,"Cc1ccc(Cl)c(Nc2ccccc2C(=O)NNC(N)=S)c1Cl [Compound 6, 2-[(2,6-dichloro-3-methylphenyl)amino]-,2-(aminothioxomethyl)hydrazide]",1.3 µM
6,"Cc1ccc(Cl)c(Nc2ccccc2-c2n[nH]c(=S)n2C)c1Cl [Compound 8, 5-[2-(2,6-Dichloro-3-methyl-phenylamino)-phenyl]-4-methyl-2,4-dihydro-[1,2,4]triazole-3-thione]",4.9 µM
7,"CC(C)(C)c1cc(Nc2ccccc2-c2n[nH]c(=S)o2)cc(C(C)(C)C)c1O [Compound 9, 5-[2-(3,5-Di-tert-butyl-4-hydroxy-phenylamino)-phenyl]-3H-[1,3,4]oxadiazole-2-thione]",23.2 µM
8,"CC(O)c1cccc(Nc2ccccc2-c2n[nH]c(=S)o2)c1Cl (stereo not drawn) [Compound 10, 5-{2-[2-Chloro-3-(1-hydroxy-ethyl)-phenylamino]-phenyl}-3H-[1,3,4]oxadiazole-2-thione]",18.9 µM
9,"Cc1ccc(Cl)c(Nc2ccccc2C=C2SC(=S)NC2=O)c1Cl [Compound 11, 5-[2-(2,6-Dichloro-3-methyl-phenylamino)-benzylidene]-2-thioxo-thiazolidin-4-one]",1.3 µM
10,"Cc1ccc(Cl)c(Nc2ccccc2-c2nnc(NC#N)s2)c1Cl [Compound 12, Cyanamide, [5-[2-[(2,6-dichloro-3-methylphenyl)amino]phenyl]-1,3,4-thiadiazol-2-yl]-]",6.4 µM
11,"CCOC(=O)N(O)C(C)c1cccc(Nc2ccccc2-c2n[nH]c(=S)o2)c1Cl (stereo not drawn) [Compound 13, Carbamic acid, [1-[2-chloro-3-[[2-(4,5-dihydro-5-thioxo-1,3,4-oxadiazol-2-yl)phenyl]amino]phenyl]ethyl]hydroxy-, ethyl ester]",5.3 µM
12,"Cc1ccc(Cl)c(Nc2ccccc2C=C2SC(=O)NC2=O)c1Cl [Compound 15, 5-[2-(2,6-Dichloro-3-methyl-phenylamino)-benzylidene]-thiazolidine-2,4-dione]",4.5 µM
13,"CNC(=O)N(O)C(C)c1cccc(Nc2ccccc2-c2n[nH]c(=S)o2)c1Cl (stereo not drawn) [Compound 16, Urea, N-[1-[2-chloro-3-[[(4,5-dihydro-5-thioxo-1,3,4-oxadiazol-2-yl)phenyl]amino]phenyl]ethyl]-N-hydroxy-N'-methyl-]",1.4 µM
14,"Cc1ccc(Cl)c(Nc2ccccc2/C=C2\SC(NC#N)=NC2=O)c1Cl [Compound 17, Cyanamide, [5-[[2-[(2,6-dichloro-3-methylphenyl)amino]phenyl]methylene]-4,5-dihydro-4-oxo-2-thiazolyl]-, (Z)-]",0.8 µM
15,"Cc1ccc(Cl)c(Nc2ccccc2-c2nsc(NC#N)n2)c1Cl [Compound 18, Cyanamide, [3-[2-[(2,6-dichloro-3-methylphenyi)amino]phenyl]-1,2,4-thiadiazol-5-yl]-]",0.3 µM
